Literature values, collected in patent EP1568762A1, “Detergent tablet compositions and their manufacture” (UNILEVER N.V., priority 2004, dated 2005).
Where two headings read alike, the source gives them in different places.

[1] = other common materials, by contrast, at 20°C

| Water Solubility (g/100g) (highly water-soluble materials, grams of solid required to form a saturated solution in 100 grams of water at 20°C) | SMILES | Water Solubility (g/100g) [1] |
| --- | --- | --- |
| – | O=P(O)(O)OP(=O)(O)OP(=O)(O)O [Sodium tripolyphosphate anhydrous] | 15 g/100g |
| >100 g/100g | NC(N)=O [Urea] | – |
| – | O=BO[O-].[Na+] [Sodium perborate anhydrous] | 3.7 g/100g |
